Data: patent US20120237937A1, “METHODS TO DETECT CANCER IN ANIMALS” (UNIVERSITY OF LOUISVILLE RESEARCH FOUNDATION, INC., priority 2009, published 2012)

Experiments:
[1] = Time course of plasma 13C-glucose and 13C-lactate in SCID mice by NMR; format: in vivo, SCID mouse; details: SCID mice
Procedure: (§1) A 20% solution of glucose in normal saline was sterile-filtered. 100 μL of this solution, or a 1:10 dilution (2%) were injected into the tail vein of a restrained mouse without anesthesia.
Approximately 50 μL samples of blood were taken intraorbitally at timed intervals, chilled and separated into plasma and whole blood by centrifugation at 4° C. at 3,000 g for 5 minutes. Plasma was flash frozen in liquid N2 for storage prior to workup.
Twenty to thirty μl of plasma was made to 10% trichloroacetic acid (TCA) and centrifuged at 4° C., at ≧22,000 g for 20 minutes to remove denatured proteins. The polar supernatant was lyophilized to remove TCA before preparation for NMR and GC-MS analysis.
(§2) NMR spectra were recorded at 14.1 T on a Varian Inova spectrometer equipped with a 5 mm inverse triple resonance cold probe, at 20° C. 1D NMR spectra were recorded with an acquisition time of 2 s and a recycle time of 5 sec. Concentrations of metabolites and ^13C incorporation were determined by peak integration of the ^1H NMR spectra referenced to the DSS methyl groups, with correction for differential relaxation, as previously described (See, Lane et al. (2008) Biophysical Tools for Biologists. 84: 541-588; Fan et al. (2008) Progress in NMR Spectroscopy 52: 69-117; Lane et al. (2007) Metabolomics 3: 79-86.). ^1H Spectra were typically processed with zero filling to 131 k points, and apodized with an unshifted Gaussian and a 0.5 Hz line broadening exponential.
The two SCID mice were injected via the tail vein with […] [U-^13C]-glucose. Blood was sequentially taken intraorbitally, and analyzed by NMR as described in the NMR Spectroscopy section. To assess the optimal time for metabolizing the ^13C6-glucose in mice, plasma samples were taken at 15-minute intervals and processed for NMR analysis. […] The initial glucose enrichment ranged from 30 to >50% depending on the size of the mouse, which means that the plasma glucose concentration was roughly doubled immediately after the bolus [U-^13C]-glucose injection. The % enrichment for glucose decreased rapidly and asymptotically within one hour, presumably via the normal homeostatic mechanism. […] The initial rate of ^13C lactate production was approximately equal to the initial rate of glucose consumption, but then decayed after about 20 minutes.

[2] = Time course analysis of 13C-metabolites in plasma by 1H NMR after [U-13C]-Glc infusion; format: in vivo, human; details: 3 hrs after [U-13C]-glucose infusion, lung cancer patients
Procedure: The extraction was performed twice for quantitative recovery.
See Fan et al. (2008) Prog. NMR Spectrosc. 52, 69-117; Fan (1996) Prog. NMR Spectrosc 28, 161-219.
In order to determine the optimal time to sample tissue after infusing [U-^13C]-Glc into lung cancer patients, we used ^1H NMR to analyze the profiles of ^13C-labeled products in plasma samples at several time points. Other than the administered tracer itself ([U-^13C]-Glc), the major ^13C-labeled metabolite in plasma was lactate. Plasma samples were collected 0, 3, and 12 hr after [U-^13C]-Glc infusion, as described in the Patient Treatment and Sample Collection section above. Unlabeled glucose and lactate concentrations were quantified by 1-D ^1H NMR using DSS as the calibration standard. Their % ^13C enrichment was determined from the respective ^13C satellite peaks in 1-D ^1H NMR spectra. Panels A-D illustrate the time course changes in glucose and lactate concentrations as well as their % ^13C enrichment. […] The chemical shifts of lactate and Ala reflected the acidic pH of the TCA extract.

[3] = GC-MS quantification of total and 13C-enriched metabolites in paired normal and cancerous lung tissues
[4] = Isotopic enrichment in SCID mouse tissue lactate and glucose by 1D 1H NMR; format: in vivo; details: Lac at C3, Glc at C1α
Procedure: as §1
Mice were sacrificed at different times post glucose injection, and the following organs were dissected sequentially: lung, heart, liver, kidney, brain, spleen, and thigh muscle. Dissected tissue was flash frozen in liquid N2 within 1 minute of killing the animal.
Frozen tissues were ground in liquid N2 to <10 μm particles in a 6750 Freezer/Mill (Retsch, Inc., Newtown, Pa.) and extracted for soluble and lipidic metabolites as follows. Up to 20 mg of frozen tissue powder in 15 ml polypropylene conical centrifuge tube (Sarstedt, Newton, N.C.) containing 3 mm diameter glass beads was vigorously mixed with 2 ml of cold acetonitrile (mass spectrometry grade, stored at −20° C.) to denature proteins, followed by addition of 1.5 ml nanopure water, and 1 ml HPLC-grade chloroform (Fisher Scientific). The mixture was shaken vigorously until achieving a milky consistency followed by centrifugation at 3,000 g for 20 minutes at 4° C. to separate the polar (top), lipidic (bottom), and tissue debris layers (interface). The polar and lipidic layers were recovered sequentially and the remaining cell debris was extracted again with 0.5 ml chloroform:methanol:butylated hydroxytoluene (BHT) (2:1:1 mM) which was pooled with the lipidic fraction. All three fractions were vacuum-dried in a speedvac device (Vacufuge, Eppendorf, New York, N.Y.) and/or by lyophylization. The dry weight of tissue debris was obtained for normalization of metabolite content. The polar extracts were redissolved in 100% D2O containing 30 nmol perdeuterated DSS (2,2-dimethyl-2-silapentane-5-sulfonate, Cambridge Isotope Laboratories, Andover, Mass.) as internal chemical shift and concentration reference for NMR measurement.
as §2
The same extracts from FIG. 9 were analyzed by NMR to complement the GC-MS analysis. The ^13C enrichment into glucose/glucose-6-phosphate and lactate was determined by 1D ^1H NMR. The enrichments at 15 and 30 minutes post infusion were substantial in all tissues, and peak lactate enrichments differed according to the metabolic activity or glucose uptake rates of the different tissues (Table 7).
Lac measured at C3, G1c measured at C1α by NMR

CC(O)C(=O)O (centres unmarked) [lactate]
peak % 13C enrichment in plasma ([1]; after [U-13C]-glucose bolus): 8-12%
time of peak 13C enrichment in plasma ([1]; post injection): 15 to 20 min
% 13C enrichment in plasma [2]: 5-22%
metabolite content of lung tissue ([3]; patient #6 (sqC, grade II), cancer tissue): 29.55 μmole/g dry weight
metabolite content of lung tissue ([3]; patient #6 (sqC, grade II), normal tissue): 2.66 μmole/g dry weight
metabolite content of lung tissue ([3]; patient #7 (adenoC, grade II), cancer tissue): 10.62 μmole/g dry weight
metabolite content of lung tissue ([3]; patient #7 (adenoC, grade II), normal tissue): 11.80 μmole/g dry weight
metabolite content of lung tissue ([3]; patient #8 (sqC, grade II-III), cancer tissue): 17.72 μmole/g dry weight
metabolite content of lung tissue ([3]; patient #8 (sqC, grade II-III), normal tissue): 9.44 μmole/g dry weight
metabolite content of lung tissue ([3]; patient #9 (sqC, grade II), cancer tissue): 25.31 μmole/g dry weight
metabolite content of lung tissue ([3]; patient #9 (sqC, grade II), normal tissue): 19.52 μmole/g dry weight
metabolite content of lung tissue ([3]; patient #10 (sqC, grade III), cancer tissue): 29.67 μmole/g dry weight
metabolite content of lung tissue ([3]; patient #10 (sqC, grade III), normal tissue): 8.27 μmole/g dry weight
% 13C isotopic enrichment in tissue ([4]; Heart, 15 min): 25%
% 13C isotopic enrichment in tissue ([4]; Heart, 30 min): 33%
% 13C isotopic enrichment in tissue ([4]; Kidney, 15 min): 19%
% 13C isotopic enrichment in tissue ([4]; Kidney, 30 min): 17%
% 13C isotopic enrichment in tissue ([4]; Liver, 15 min): 11%
% 13C isotopic enrichment in tissue ([4]; Liver, 30 min): 13%
% 13C isotopic enrichment in tissue ([4]; Lung N, 15 min): 20%
% 13C isotopic enrichment in tissue ([4]; Lung N, 30 min): 17%
% 13C isotopic enrichment in tissue ([4]; Thigh muscle, 15 min): 17%
% 13C isotopic enrichment in tissue ([4]; Thigh muscle, 30 min): 11%
